# Measured values as given in patent publication US20140350092A1, “METHOD FOR […] VIRUS INFECTION” (Natura Corporation, priority 2003, published 2014).
# How the values were obtained:
# Japan cedar pollen [1] = assay: Assay of pollen enclosure (pollen rouleaux formation / pollen aggregation)
# Experimental: In order to assay the actions of pectin and nucleic acid, contained in the contact preventive biological preparation of the present invention, on pollen, the following experiments were carried out. In the following experiments, by “pollen rouleaux formation” is meant a state in which a plurality of pollen particles continue linearly, and by “pollen aggregation” is meant a state in which a plurality of pollen particles constitute a bulk. Both “pollen rouleaux formation” and “pollen aggregation” denote a state in which pollen particles are captured by a medium and their free movement is inhibited, and as the degree thereof increases, the power of enclosing pollen increases.
# Japan cedar pollen was put in a first water solution containing pectin (#168-00555 by Wako Pure Chemical Industries, Ltd.), in a second water solution containing glycerin, in a third water solution containing pectin and glycerin, and in a fourth water solution containing DNA (DN-JA0904, DK-JB0218 by Daiwa Fine Chemical Co. Ltd.), RNA (R6625 by Sigma), amino acid, and glycerin, and these water solutions were subjected to incubation for ten minutes at room temperature to prepare pollen developed liquids.
# Each pollen developed liquid was instilled in the form of a drop onto a slide glass and was allowed to stand. After being dried, the test sample was stained by means of a ruthenium red solution and a gentian violet alcohol solution, and the assay of pollen rouleaux formation was examined microscopically.
# In order to comparatively examine the actions of enclosing pollen by pectins, uronic acid-containing substances, and mucopolysaccharides according to the present invention, the following twelve kinds of samples were examined in the same way as the first exemplary embodiment. The twelve samples were: YM115-H; LM101-AS; Type DF; SLENDID type 100; SLENDID type 200; LM104AS-FS; LM-SCS; USP-H; USP-L; LH-105AS; AS Confectionary; and YM150-LJ by Genu.
# [2] = after ingestion versus before ingestion; cited from earlier work
# [3] = test system: neuraminidase of the type A influenza virus; assay: enzymatic activity of influenza-virus neuraminidase (synthetic coloring substrate); format: biochemical
# Experimental: The activity of neuraminidase of the type A influenza virus was analyzed by an enzymic reaction with a synthetic coloring substrate (Gene Stat Flu Kit by Nichirei). This enzymic reaction is based on the power of neuraminidase to cut acetyl neuraminic, and darker solution's blue-coloring result indicates higher enzymatic activity.
# A virus test body, taken from the larynx of a type A influenza infected patient, was divided into two sample pieces, i.e., a control sample and a sample used for the evaluation of the anti-enzyme activity of pectins.
# [4] = Application testing of eyedrop and nosedrop biological preparations on pollenosis sufferer; format: in vivo, human
# Experimental: The contact preventive biological preparation according to the present invention was applied to eyedrop and nosedrop biological preparations and their application tests were carried out on test subjects. These eyedrop and nosedrop biological preparations according to the present exemplary embodiment contain therein pectin (type DF et cetera by Genu) and DNA (Daiwa Fine Chemical Co. Ltd.) at the following contents.
# The content of pectin and the content of DNA are: pectin (0.03 to 1.0%); DNA (0.05 to 1.0%); 0.5% pectin+0.5% DNA; 0.8% pectin+0.2% DNA; and 0.2% pectin+0.8% DNA.
# Pollenosis sufferers were test subjects, and the degree of improvement in itching symptom when each eyedrop biological preparation was administrated at the time of the development of an allergic reaction and its duration and application (use) feeling (the degree of uncomfortable feeling) were examined. The results thus obtained were evaluated according to the following evaluation standards.
# [5] = test system: basophiles in the blood of a pollenosis sufferer; assay: emission of histamine from basophiles in the blood of a pollenosis sufferer; format: cell-based, human
# Experimental: Blood sampling from a pollenosis sufferer was carried out, and basophiles recognized by a cell surface marker were separated by means of a magnet method. Then, the basophiles thus separated were exposed to a pollen extraction component fixed onto a micro plate, and emitted histamine was quantitatively measured by an absorbance method through a coloring reaction making use of antihistamic antibodies (HRT by Shionogi & Co., Ltd.).
# A control sample making use of only a buffering solution, a sample comprising a pectin-containing buffering solution, and a nucleic acid-containing sample were prepared, and the rate of liberation of histamine with respect to the increase of allergen was comparatively examined. In the experiment, a cedar pollen extraction antigen was used as an allergen.
# [6] = Comparison in action with commercially available eyedrop and nosedrop biological preparations; design: species or system human; conditions: in vivo
# From the text: Conventional, commercially available eyedrop and nosedrop biological preparations against pollenosis symptoms were compared with the biological preparations according to the present invention in the action with respect to the manifestation of pollenosis symptoms.
# The commercially available nosedrop biological preparations contain a vasopressor agent, an antihistamic agent, a bactericidal substance, a fragrant material et cetera.
# Japan cedar pollen [7] = assay: Assay of pollen enclosure (pollen rouleaux formation / pollen aggregation); conditions: in biological preparations (artificial tears, nose spray, mouth washer) and drug solutions
# [8] = test system: pollenosis sufferer's white blood cells; assay: in vitro cluster formation by pollenosis sufferer's white blood cells and pollen; format: cell-based, human; conditions: pollen dispersed in 0.3% pectin water solution
# Experimental: White blood cells separated from the blood of a pollenosis sufferer was subjected to incubation on a slide glass with cedar pollen fixed thereonto.
compound,measurement,setting,value
OB(O)O [boric acid],effect on pollen aggregation / dispersion,Japan cedar pollen [1],promoted the aggregation of pollen
same,pollen burst,Japan cedar pollen [1],causing pollen to burst
N[C@@H](CCC(=O)O)C(=O)O [glutamic acid],effect of additive on the pollen enclosing action of pectin,Japan cedar pollen [1],reinforce the action of enclosing pollen by pectin
OC[C@H]1O[C@H](O[C@H]2O[C@H](CO)[C@@H](O)[C@H](O)[C@H]2O)[C@H](O)[C@@H](O)[C@@H]1O [trehalose],effect of additive on the pollen enclosing action of pectin,Japan cedar pollen [1],reinforced
apple pectin,drop of concentration of histamine in the blood,[2],24%
carboxymethyl cellulose,effect of additive on the pollen enclosing action of pectin,Japan cedar pollen [1],reinforced
"carrageenan [carrageenan (K-100J), reference compound]",pollen enclosing power,"Japan cedar pollen [1]; comparison of samples, same way as first exemplary embodiment",less significant in pollen enclosing power than the others
cluster dextrin,effect of additive on the pollen enclosing action of pectin,Japan cedar pollen [1],reinforced
heparin [reference compound],neuraminidase enzymatic activity (blue color reaction),[3]; heparin 20 unit/ml,color exhibition of blue coloring became dull
methyl cellulose,effect of additive on the pollen enclosing action of pectin,Japan cedar pollen [1],reinforced
pectin,curative properties against the symptoms,"[4]; eyedrop, FIG. 3, 0.5% pectin or 0.5% DNA",obvious curative properties against the symptoms
same,application feeling,[4]; eyedrops of a pectin concentration of 0.5% or more,caused a sticky feeling
same,curative properties against pollenosis symptoms (itching and snuffles),"[4]; pectin from 0.03 to 1%, used alone",curative properties against pollenosis symptoms
same,effect of preventing the liberation of histamine,"[5]; 0.03% pectin alone, FIG. 2",impossible for a 0.03% pectin-containing sample alone to provide a satisfactory effect
same,liberation of histamine from basophiles,"[5]; 0.03% pectin, cedar pollen extraction antigen, FIG. 1",inhibited over a wide range
same,liberation of histamine from basophiles,"[5]; pectin about 0.1% to about 0.3%, high-concentration cedar pollen",inhibited
same,irritation / sensation on application,[6],felling of drying
same,pollen rouleaux formation,Japan cedar pollen [1]; no pectin or pectin at a low concentration of less than 0.3%,no rouleaux capture of cedar pollen was detected
same,pollen rouleaux formation,Japan cedar pollen [1]; pectin from about 0.03 to about 3.0%,pollen rouleaux formation was promoted
same,neuraminidase enzymatic activity (blue color reaction),[3]; 0.05% pectin (USD-H by Genu),no color reaction was observed
same,pollen enclosing function of pectin in presence of other components,Japan cedar pollen [7],exerted satisfactorily without any interference
same,accumulation of white blood cells on pollen,[8],no tendency to accumulate on pollen
